# Test results: PubChem BioAssay (NCI)
#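 GI50: concentration for 50% inhibition of growth. TGI is the concentration that stops growth completely.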
# Tests used:
# Assay in all cases: inhibition of tumour cell growth, NCI panel, 384-well format
# OVCAR-3 ovarian = system: OVCAR-3 ovarian
# NCI-H322M lung = system: NCI-H322M lung
# OVCAR-4 ovarian = system: OVCAR-4 ovarian
# MALME-3M melanoma = system: MALME-3M melanoma
# SF-539 CNS = system: SF-539 CNS
# COLO 205 colon = system: COLO 205 colon
# UACC-257 melanoma = system: UACC-257 melanoma
# TK-10 renal = system: TK-10 renal
# NCI/ADR-RES ovarian = system: NCI/ADR-RES ovarian
# NCI-H23 lung = system: NCI-H23 lung
# U251 glioblastoma = system: U251 glioblastoma
# KM12 colon = system: KM12 colon
# HCT-116 colon = system: HCT-116 colon
# A549 NSCLC = system: A549 NSCLC
# BT-549 breast = system: BT-549 breast
# OVCAR-8 ovarian = system: OVCAR-8 ovarian
# NCI-H460 NSCLC = system: NCI-H460 NSCLC
# MCF7 breast = system: MCF7 breast
# NCI-H522 lung = system: NCI-H522 lung
# HOP-92 NSCLC = system: HOP-92 NSCLC
# SK-MEL-28 melanoma = system: SK-MEL-28 melanoma
# DU-145 prostate = system: DU-145 prostate
# IGROV1 ovarian = system: IGROV1 ovarian
# MDA-MB-435 melanoma = system: MDA-MB-435 melanoma
# SK-MEL-5 melanoma = system: SK-MEL-5 melanoma
# SNB-19 CNS = system: SNB-19 CNS
# NCI-H226 lung = system: NCI-H226 lung
# CCRF-CEM leukemia = system: CCRF-CEM leukemia
# MDA-MB-468 breast = system: MDA-MB-468 breast
smiles,measurement,setting,value
O=C(NS(=O)(=O)c1ccc(NC[C@H]2COCCO2)c([N+](=O)[O-])c1)c1ccc(N2CCN(CC3=C(c4ccc(Cl)cc4)CC4(CCC4)CC3)CC2)cc1Oc1cnc2[nH]ccc2c1,TGI,OVCAR-3 ovarian,3.91 µM
same,GI50,NCI-H322M lung,2.79 µM
same,TGI,NCI-H322M lung,6.65 µM
same,GI50,OVCAR-4 ovarian,2.64 µM
same,TGI,OVCAR-4 ovarian,6.47 µM
same,GI50,MALME-3M melanoma,2.28 µM
same,TGI,MALME-3M melanoma,4.37 µM
same,GI50,SF-539 CNS,1.97 µM
same,TGI,SF-539 CNS,4.22 µM
same,GI50,COLO 205 colon,2.26 µM
same,TGI,COLO 205 colon,4.27 µM
same,GI50,UACC-257 melanoma,2.17 µM
same,TGI,UACC-257 melanoma,4.31 µM
same,GI50,TK-10 renal,2.69 µM
same,TGI,TK-10 renal,8.48 µM
same,GI50,NCI/ADR-RES ovarian,4.66 µM
same,TGI,NCI/ADR-RES ovarian,16.7 µM
same,GI50,NCI-H23 lung,1.89 µM
same,TGI,NCI-H23 lung,4.05 µM
same,GI50,U251 glioblastoma,2.34 µM
same,TGI,U251 glioblastoma,5.35 µM
same,GI50,KM12 colon,2.51 µM
same,TGI,KM12 colon,6.15 µM
same,GI50,HCT-116 colon,2.3 µM
same,TGI,HCT-116 colon,5.47 µM
same,GI50,A549 NSCLC,2.34 µM
same,TGI,A549 NSCLC,7.54 µM
same,GI50,BT-549 breast,2.63 µM
same,TGI,BT-549 breast,5.74 µM
same,GI50,OVCAR-8 ovarian,2.99 µM
same,TGI,OVCAR-8 ovarian,9.88 µM
same,GI50,NCI-H460 NSCLC,1.65 µM
same,TGI,NCI-H460 NSCLC,3.98 µM
same,GI50,MCF7 breast,2.65 µM
same,TGI,MCF7 breast,8.8 µM
same,GI50,NCI-H522 lung,3 µM
same,TGI,NCI-H522 lung,7.32 µM
same,GI50,HOP-92 NSCLC,1.56 µM
same,TGI,HOP-92 NSCLC,3.1 µM
same,GI50,SK-MEL-28 melanoma,2.53 µM
same,TGI,SK-MEL-28 melanoma,5.49 µM
same,GI50,DU-145 prostate,2.82 µM
same,TGI,DU-145 prostate,7.77 µM
same,GI50,IGROV1 ovarian,1.84 µM
same,TGI,IGROV1 ovarian,4.31 µM
same,GI50,MDA-MB-435 melanoma,2.38 µM
same,TGI,MDA-MB-435 melanoma,5.03 µM
same,GI50,SK-MEL-5 melanoma,1.81 µM
same,TGI,SK-MEL-5 melanoma,3.33 µM
same,GI50,SNB-19 CNS,3.97 µM
same,TGI,SNB-19 CNS,14.7 µM
same,GI50,NCI-H226 lung,1.98 µM
same,TGI,NCI-H226 lung,4.2 µM
same,GI50,CCRF-CEM leukemia,1.34 µM
same,TGI,CCRF-CEM leukemia,2.64 µM
same,GI50,MDA-MB-468 breast,1.83 µM
same,TGI,MDA-MB-468 breast,3.86 µM
